Reference: patent publication US20230340011A1 (Asteroid Therapeutics, priority 2022, published 2023)
pEC50, pIC50: −log10 of the molar value.

Experiments:
[1] = target: SREBP-2 (Homo sapiens (Human), UniProt Q12772); assay: In vitro assay SREBP-2: PathHunter U2OS SREBP-2 Nuclear Translocation Cell Line, U18666A-stimulated; assay type: cell-based; details: PathHunter U2OS SREBP-2 nuclear translocation cells, U18666A 10 μM, overnight (16 hours)
[2] = target: LXRβ (Homo sapiens (Human), UniProt P55055); assay: In vitro assay LXRβ: PathHunter NHR CHO cells, LXRβ / Steroid Receptor Co-activator Peptide enzyme fragment complementation; assay type: cell-based; details: PathHunter NHR CHO cells, full-length human LXRβ and SRCP, chemiluminescent signal; read-out: LXRβ PPI
LXRβ, sequence (P55055 whole entry, the tested form may be a part): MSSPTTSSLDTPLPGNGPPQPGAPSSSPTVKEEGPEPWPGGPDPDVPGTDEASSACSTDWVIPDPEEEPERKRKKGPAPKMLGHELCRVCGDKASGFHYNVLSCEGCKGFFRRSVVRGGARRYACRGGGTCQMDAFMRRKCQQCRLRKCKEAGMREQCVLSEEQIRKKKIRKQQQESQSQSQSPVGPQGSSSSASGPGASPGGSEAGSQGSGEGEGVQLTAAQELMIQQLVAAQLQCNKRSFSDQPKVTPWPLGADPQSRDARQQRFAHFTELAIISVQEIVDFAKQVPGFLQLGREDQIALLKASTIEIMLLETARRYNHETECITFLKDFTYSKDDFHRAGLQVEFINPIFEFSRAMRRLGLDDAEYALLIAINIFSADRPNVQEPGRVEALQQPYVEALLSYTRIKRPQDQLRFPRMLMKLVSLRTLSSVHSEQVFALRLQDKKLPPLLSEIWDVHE
In short: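 Co-activator recruitment measured by chemiluminescence after signal generation. The CHO line carries full-length human LXRβ tagged with ProLink and an SRCP–enzyme acceptor fusion in the nucleus; cells sat overnight at 37° C before testing, in charcoal-dextran filtered serum medium with 1% final vehicle.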

SMILES | pIC50 [1] | pEC50 [2]
C[C@H](CCC(=O)N(C)C)[C@H]1CC[C@H]2[C@@H]3CC=C4C[C@@H](F)CC[C@]4(C)[C@H]3CC[C@]12C [Example 126, (R)-4-((3S,8S,9S,10R,13R,14S,17R)-3-fluoro-10,13-dimethyl-2,3,4,7,8,9,10,11,12,13,14,15,16,17-tetradecahydro-1H-cyclopenta[a]phenanthren-17-yl)-N,N-dimethylpentanamide] | < 5.00 | < 5.00
CCN(C)C(=O)OC[C@@H](C)[C@H]1CC[C@H]2[C@@H]3CC=C4C[C@@H](O)CC[C@]4(C)[C@H]3CC[C@]12C [Example 352, (2S)-2-[(1R,3aS,3bS,7S,9aR,9bS,11aS)-7-hydroxy-9a,11a-dimethyl-1H,2H,3H,3aH,3bH,4H,6H,7H,8H,9H,9aH,9bH,10H,11H,11aH-cyclopenta[a]phenanthren-1-yl]propyl N-ethyl-N-methylcarbamate] | > 6.60 | 5.00 to 6.00
COc1cc(N2CCN(C(=O)CC[C@@H](C)[C@H]3CC[C@H]4[C@@H]5CC=C6C[C@@H](O)CC[C@]6(C)[C@H]5CC[C@]34C)CC2)ncn1 [Example 203, (4R)-4-[(1R,3aS,3bS,7S,9aR,9bS,11aR)-7-hydroxy-9a,11a-dimethyl-1H,2H,3H,3aH,3bH,4H,6H,7H,8H,9H,9aH,9bH,10H,11H,11aH-cyclopenta[a]phenanthren-1-yl]-1-[4-(6-methoxypyrimidin-4-yl)piperazin-1-yl]pentan-1-one] | > 6.60 | < 5.00
C[C@H](CCC(=O)N1CCN(C(=O)c2ccncn2)CC1)[C@H]1CC[C@H]2[C@@H]3CC=C4C[C@@H](O)CC[C@]4(C)[C@H]3CC[C@]12C [Example 334, (R)-4-((3S,8S,9S,10R,13R,14S,17R)-3-hydroxy-10,13-dimethyl-2,3,4,7,8,9,10,11,12,13,14,15,16,17-tetradecahydro-1H-cyclopenta[a]phenanthren-17-yl)-1-(4-(pyrimidine-4-carbonyl)piperazin-1-yl)pentan-1-one] | > 6.60 | < 5.00
C[C@H](CCC(=O)N1CCN(C(=O)N2CCCC2)CC1)[C@H]1CC[C@H]2[C@@H]3CC=C4C[C@@H](O)CC[C@]4(C)[C@H]3CC[C@]12C [Example 207, (R)-4-((3S,8S,9S,10R,13R,14S,17R)-3-hydroxy-10,13-dimethyl-2,3,4,7,8,9,10,11,12,13,14,15,16,17-tetradecahydro-1H-cyclopenta[a]phenanthren-17-yl)-1-(4-(pyrrolidine-1-carbonyl)piperazin-1-yl) pentan-1-one] | > 6.60 | < 5.00
CC(=O)N(C)C1CCN(C(=O)CC[C@@H](C)[C@H]2CC[C@H]3[C@@H]4CC=C5C[C@@H](O)CC[C@]5(C)[C@H]4CC[C@]23C)CC1 [Example 319, N-(1-((R)-4-((3S,8S,9S,10R,13R,14S,17R)-3-hydroxy-10,13-dimethyl-2,3,4,7,8,9,10,11,12,13,14,15,16,17-tetradecahydro-1H-cyclopenta[a]phenanthren-17-yl)pentanoyl)piperidin-4-yl)-N-methylacetamide] | > 6.60 | < 5.00
C[C@H](CCc1cccc(Cl)n1)[C@H]1CC[C@H]2[C@@H]3CC=C4C[C@@H](O)CC[C@]4(C)[C@H]3CC[C@]12C [Example 165, (3S,8S,9S,10R,13R,14S,17R)-17-((R)-4-(6-chloropyridin-2-yl)butan-2-yl)-10,13-dimethyl-2,3,4,7,8,9,10,11,12,13,14,15,16,17-tetradecahydro-1H-cyclopenta[a]phenanthren-3-ol] | 6.00 to 6.60 | < 5.00
C[C@H](CCC(=O)N(C)C1CCN(C(=O)N2CCCC2)CC1)[C@H]1CC[C@H]2[C@@H]3CC=C4C[C@@H](O)CC[C@]4(C)[C@H]3CC[C@]12C [Example 645, (4R)-4-[(1R,3aS,3bS,7S,9aR,9bS,11aR)-7-hydroxy-9a,11a-dimethyl-1H,2H,3H,3aH,3bH,4H,6H,7H,8H,9H,9aH,9bH,10H,11H,11aH-cyclopenta[a]phenanthren-1-yl]-N-methyl-N-[1-(pyrrolidine-1-carbonyl)piperidin-4-yl]pentanamide] | > 6.60 | < 5.00
Cc1ccc(CC[C@@H](C)[C@H]2CC[C@H]3[C@@H]4CC=C5C[C@@H](O)CC[C@]5(C)[C@H]4CC[C@]23C)nc1 [Example 131, (3S,8S,9S,10R,13R,14S,17R)-10,13-dimethyl-17-((R)-4-(5-methylpyridin-2-yl)butan-2-yl)-2,3,4,7,8,9,10,11,12,13,14,15,16,17-tetradecahydro-1H-cyclopenta[a]phenanthren-3-ol] | 6.00 to 6.60 | < 5.00
Cc1nccc(N2CCN(C(=O)CC[C@@H](C)[C@H]3CC[C@H]4[C@@H]5CC=C6C[C@@H](O)CC[C@]6(C)[C@H]5CC[C@]34C)[C@@H](C)C2)n1 [Example 649, (R)-4-((3S,8S,9S,10R,13R,14S,17R)-3-hydroxy-10,13-dimethyl-2,3,4,7,8,9,10,11,12,13,14,15,16,17-tetradecahydro-1H-cyclopenta[a]phenanthren-17-yl)-1-((S)-2-methyl-4-(2-methylpyrimidin-4-yl)piperazin-1-yl)pentan-1-one] | > 6.60 | < 5.00
C[C@H](CCC(=O)N1CCN(C(=O)c2nnnn2C)CC1)[C@H]1CC[C@H]2[C@@H]3CC=C4C[C@@H](O)CC[C@]4(C)[C@H]3CC[C@]12C [Example 363, (R)-4-((3S,8S,9S,10R,13R,14S,17R)-3-hydroxy-10,13-dimethyl-2,3,4,7,8,9,10,11,12,13,14,15,16,17-tetradecahydro-1H-cyclopenta[a]phenanthren-17-yl)-1-(4-(1-methyl-1H-tetrazole-5-carbonyl)piperazin-1-yl)pentan-1-one] | > 6.60 | < 5.00
C[C@H](CCC(=O)N1CCN(C(=O)c2cn(C)nn2)[C@@H](C)C1)[C@H]1CC[C@H]2[C@@H]3CC=C4C[C@@H](O)CC[C@]4(C)[C@H]3CC[C@]12C [Example 574, (R)-4-((3S,8S,9S,10R,13R,14S,17R)-3-hydroxy-10,13-dimethyl-2,3,4,7,8,9,10,11,12,13,14,15,16,17-tetradecahydro-1H-cyclopenta[a]phenanthren-17-yl)-1-((S)-3-methyl-4-(1-methyl-1H-1,2,3-triazole-4-carbonyl)piperazin-1-yl)pentan-1-one] | > 6.60 | < 5.00
C[C@H](CCc1ccccn1)[C@H]1CC[C@H]2[C@@H]3CC=C4C[C@@](C)(O)CC[C@]4(C)[C@H]3CC[C@]12C [Example 369, (3S,8S,9S,10R,13R,14S,17R)-3,10,13-trimethyl-17-((R)-4-(pyridin-2-yl)butan-2-yl)-2,3,4,7,8,9,10,11,12,13,14,15,16,17-tetradecahydro-1H-cyclopenta[a]phenanthren-3-ol] | 6.00 to 6.60 | 5.00 to 6.00
Cc1cccnc1OC[C@@H](C)[C@H]1CC[C@H]2[C@@H]3CC=C4C[C@@H](O)CC[C@]4(C)[C@H]3CC[C@]12C [Example 261, (3S,8S,9S,10R,13S,14S,17R)-10,13-dimethyl-17-((S)-1-((3-methylpyridin-2-yl)oxy)propan-2-yl)-2,3,4,7,8,9,10,11,12,13,14,15,16,17-tetradecahydro-1H-cyclopenta[a]phenanthren-3-ol] | > 6.60 | < 5.00
C=CCN1C[C@H]2CCN(C(=O)CC[C@@H](C)[C@H]3CC[C@H]4[C@@H]5CC=C6C[C@@H](O)CC[C@]6(C)[C@H]5CC[C@]34C)[C@H]2C1 [Example 140, (R)-1-((3aR,6aR)-5-allylhexahydropyrrolo[3,4-b]pyrrol-1(2H)-yl)-4-((3S,8S,9S,10R,13R,14S,17R)-3-hydroxy-10,13-dimethyl-2,3,4,7,8,9,10,11,12,13,14,15,16,17-tetradecahydro-1H-cyclopenta[a]phenanthren-17-yl)pentan-1-one] | 6.00 to 6.60 | < 5.00
COc1cccnc1NC(=O)CC[C@@H](C)[C@H]1CC[C@H]2[C@@H]3CC=C4C[C@@H](O)CC[C@]4(C)[C@H]3CC[C@]12C [Example 625, (R)-4-((3S,8S,9S,10R,13R,14S,17R)-3-hydroxy-10,13-dimethyl-2,3,4,7,8,9,10,11,12,13,14,15,16,17-tetradecahydro-1H-cyclopenta[a]phenanthren-17-yl)-N-(3-methoxypyridin-2-yl)pentanamide] | > 6.60 | < 5.00
C[C@@H]1CCCN(C(=O)CC[C@@H](C)[C@H]2CC[C@H]3[C@@H]4CC=C5C[C@@H](O)CC[C@]5(C)[C@H]4CC[C@]23C)C1 [Example 111, (R)-4-((3S,8S,9S,10R,13R,14S,17R)-3-hydroxy-10,13-dimethyl-2,3,4,7,8,9,10,11,12,13,14,15,16,17-tetradecahydro-1H-cyclopenta[a]phenanthren-17-yl)-1-((R)-3-methylpiperidin-1-yl) pentan-1-one] | > 6.60 | 6.00 to 6.60
COC(=O)N1CCN(C(=O)[C@@H](C)[C@H]2CC[C@H]3[C@@H]4CC=C5C[C@@H](O)CC[C@]5(C)[C@H]4CC[C@]23C)CC1 [Example 598, methyl 4-((S)-2-((3S,8S,9S,10R,13S,14S,17R)-3-hydroxy-10,13-dimethyl-2,3,4,7,8,9,10,11,12,13,14,15,16,17-tetradecahydro-1H-cyclopenta[a]phenanthren-17-yl)propanoyl)piperazine-1-carboxylate] | 5.00 to 6.00 | < 5.00
CC(C)ON(C)C(=O)CC[C@@H](C)[C@H]1CC[C@H]2[C@@H]3CC=C4C[C@@H](O)CC[C@]4(C)[C@H]3CC[C@]12C [Example 14, (R)-4-((3S,8S,9S,10R,13R,14S,17R)-3-hydroxy-10,13-dimethyl-2,3,4,7,8,9,10,11,12,13,14,15,16,17-tetradecahydro-1H-cyclopenta[a]phenanthren-17-yl)-N-isopropoxy-N-methylpentanamide] | 6.00 to 6.60 | 6.00 to 6.60
